Test results taken from PubChem BioAssay (NCI).
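All cell lines were grown in 96-well plates and treated with compound for 48 hours. GI50 is the concentration that inhibits growth by half. TGI marks complete inhibition of growth.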

Assays:
Experiment in all cases: inhibition of tumour cell growth, NCI panel, 48 h
786-0 renal = tested on: 786-0 renal
A549 NSCLC = tested on: A549 NSCLC
ACHN renal = tested on: ACHN renal
CAKI-1 renal = tested on: CAKI-1 renal
COLO 205 colon = tested on: COLO 205 colon
DU-145 prostate = tested on: DU-145 prostate
HCC-2998 colon = tested on: HCC-2998 colon
HCT-116 colon = tested on: HCT-116 colon
HCT-15 colon = tested on: HCT-15 colon
HL-60(TB) leukemia = tested on: HL-60(TB) leukemia
HOP-62 NSCLC = tested on: HOP-62 NSCLC
HS 578T breast = tested on: HS 578T breast
HT29 colon = tested on: HT29 colon
IGROV1 ovarian = tested on: IGROV1 ovarian
K-562 leukemia = tested on: K-562 leukemia
KM12 colon = tested on: KM12 colon
LOX IMVI melanoma = tested on: LOX IMVI melanoma
M14 melanoma = tested on: M14 melanoma
MCF7 breast = tested on: MCF7 breast
MDA-MB-231 breast = tested on: MDA-MB-231 breast
MDA-MB-435 = tested on: MDA-MB-435
MOLT-4 leukemia = tested on: MOLT-4 leukemia
NCI-H226 lung = tested on: NCI-H226 lung
NCI-H23 lung = tested on: NCI-H23 lung
NCI-H460 lung = tested on: NCI-H460 lung
NCI-H522 lung = tested on: NCI-H522 lung
NCI/ADR-RES ovarian = tested on: NCI/ADR-RES ovarian
OVCAR-3 ovarian = tested on: OVCAR-3 ovarian
OVCAR-5 ovarian = tested on: OVCAR-5 ovarian
OVCAR-8 ovarian = tested on: OVCAR-8 ovarian
RXF 393 renal = tested on: RXF 393 renal
SF-268 CNS = tested on: SF-268 CNS
SF-295 CNS = tested on: SF-295 CNS
SF-539 CNS = tested on: SF-539 CNS
SK-MEL-2 melanoma = tested on: SK-MEL-2 melanoma
SK-MEL-28 melanoma = tested on: SK-MEL-28 melanoma
SK-MEL-5 melanoma = tested on: SK-MEL-5 melanoma
SN12C renal = tested on: SN12C renal
SNB-19 CNS = tested on: SNB-19 CNS
SW-620 colon = tested on: SW-620 colon
T-47D breast = tested on: T-47D breast
TK-10 renal = tested on: TK-10 renal
U251 CNS = tested on: U251 CNS
UACC-257 melanoma = tested on: UACC-257 melanoma
UACC-62 melanoma = tested on: UACC-62 melanoma
UO-31 renal = tested on: UO-31 renal
BT-549 breast = tested on: BT-549 breast
CCRF-CEM leukemia = tested on: CCRF-CEM leukemia
EKVX NSCLC = tested on: EKVX NSCLC
HOP-92 NSCLC = tested on: HOP-92 NSCLC
MALME-3M melanoma = tested on: MALME-3M melanoma
PC-3 prostate = tested on: PC-3 prostate
RPMI-8226 leukemia = tested on: RPMI-8226 leukemia
SR leukemia = tested on: SR leukemia

**Q.** Which results are given for `CCN(CC)CCOc1ccc(/C=C2\C[C@H]3[C@H]4CC=C5C[C@@H](O)CC[C@]5(C)[C@H]4CC[C@]3(C)[C@H]2O)cc1OC`?
**A.** GI50 (786-0 renal): 5.09 µM; TGI (786-0 renal): 16.1 µM; GI50 (A549 NSCLC): 10.7 µM; TGI (A549 NSCLC): 25 µM; GI50 (ACHN renal): 9.23 µM; TGI (ACHN renal): 17.4 µM; GI50 (CAKI-1 renal): 7.14 µM; TGI (CAKI-1 renal): 15.9 µM; GI50 (COLO 205 colon): 12.8 µM; TGI (COLO 205 colon): > 50 µM; GI50 (DU-145 prostate): 3.86 µM; TGI (DU-145 prostate): 10.2 µM; GI50 (HCC-2998 colon): 11.6 µM; TGI (HCC-2998 colon): 20.6 µM; GI50 (HCT-116 colon): 14.6 µM; TGI (HCT-116 colon): > 50 µM; GI50 (HCT-15 colon): 9.19 µM; TGI (HCT-15 colon): 18.5 µM; GI50 (HL-60(TB) leukemia): 10.4 µM; TGI (HL-60(TB) leukemia): 22.5 µM; GI50 (HOP-62 NSCLC): 8.89 µM; TGI (HOP-62 NSCLC): 22.8 µM; GI50 (HS 578T breast): 8.66 µM; TGI (HS 578T breast): 18.7 µM; GI50 (HT29 colon): 10.9 µM; TGI (HT29 colon): > 50 µM; GI50 (IGROV1 ovarian): 1230 nM; TGI (IGROV1 ovarian): > 50 µM; GI50 (K-562 leukemia): 8.09 µM; TGI (K-562 leukemia): 32 µM; GI50 (KM12 colon): 8.1 µM; TGI (KM12 colon): 17 µM; GI50 (LOX IMVI melanoma): 7.7 µM; TGI (LOX IMVI melanoma): 15.3 µM; GI50 (M14 melanoma): 6.12 µM; TGI (M14 melanoma): 16.8 µM; GI50 (MCF7 breast): 12.4 µM; TGI (MCF7 breast): > 50 µM; GI50 (MDA-MB-231 breast): 6.94 µM; TGI (MDA-MB-231 breast): 14.2 µM; GI50 (MDA-MB-435): 7.75 µM; TGI (MDA-MB-435): 16.5 µM; GI50 (MOLT-4 leukemia): 10.5 µM; TGI (MOLT-4 leukemia): > 50 µM; GI50 (NCI-H226 lung): 7.71 µM; TGI (NCI-H226 lung): 16 µM; GI50 (NCI-H23 lung): 11.2 µM; TGI (NCI-H23 lung): 23.9 µM; GI50 (NCI-H460 lung): 13.1 µM; TGI (NCI-H460 lung): > 50 µM; GI50 (NCI-H522 lung): 216 nM; TGI (NCI-H522 lung): > 50 µM; GI50 (NCI/ADR-RES ovarian): 9.98 µM; TGI (NCI/ADR-RES ovarian): 22 µM; GI50 (OVCAR-3 ovarian): 7.96 µM; TGI (OVCAR-3 ovarian): 17.8 µM; GI50 (OVCAR-5 ovarian): 9.44 µM; TGI (OVCAR-5 ovarian): 18.6 µM; GI50 (OVCAR-8 ovarian): 12.9 µM; TGI (OVCAR-8 ovarian): 26.5 µM; GI50 (RXF 393 renal): 13.4 µM; TGI (RXF 393 renal): 39.3 µM; GI50 (SF-268 CNS): 14.9 µM; TGI (SF-268 CNS): 47 µM; GI50 (SF-295 CNS): 10.4 µM; TGI (SF-295 CNS): 25.4 µM; GI50 (SF-539 CNS): 1430 nM; TGI (SF-539 CNS): 9.82 µM; GI50 (SK-MEL-2 melanoma): 135 nM; TGI (SK-MEL-2 melanoma): > 50 µM; GI50 (SK-MEL-28 melanoma): 7.74 µM; TGI (SK-MEL-28 melanoma): > 50 µM; GI50 (SK-MEL-5 melanoma): 625 nM; TGI (SK-MEL-5 melanoma): 11.1 µM; GI50 (SN12C renal): 6.78 µM; TGI (SN12C renal): 14 µM; GI50 (SNB-19 CNS): 17.1 µM; TGI (SNB-19 CNS): > 50 µM; GI50 (SW-620 colon): 1930 nM; TGI (SW-620 colon): 11.7 µM; GI50 (T-47D breast): 24.5 µM; TGI (T-47D breast): > 50 µM; GI50 (TK-10 renal): 5.49 µM; TGI (TK-10 renal): 11.5 µM; GI50 (U251 CNS): 9.53 µM; TGI (U251 CNS): 17.3 µM; GI50 (UACC-257 melanoma): 8.42 µM; TGI (UACC-257 melanoma): 18.1 µM; GI50 (UACC-62 melanoma): 7.53 µM; TGI (UACC-62 melanoma): 14.5 µM; GI50 (UO-31 renal): 7.23 µM; TGI (UO-31 renal): 18 µM

**Q.** For `C#CC[C@@H]1C[C@]2(C)[C@H]3CC=C4[C@H]5[C@@H](C)[C@H](C)CC[C@]5(C(=O)NCCCN5CCN(CCCN)CC5)CC[C@@]4(C)[C@]3(C)CC[C@H]2C(C)(C)[C@H]1OC(C)=O`, which GI50 (OVCAR-5 ovarian) is on record?
**A.** 1.61 µM

**Q.** What about the TGI (OVCAR-5 ovarian) of the same compound?
**A.** 3.02 µM

**Q.** Which TGI (786-0 renal) does the source give for `CC(C)(C)CNC(=O)NCn1cc(-c2ccccc2)nn1` here?
**A.** > 100 µM

**Q.** And the TGI (A549 NSCLC)?
**A.** > 100 µM

**Q.** And the TGI (ACHN renal)?
**A.** > 100 µM

**Q.** And the TGI (BT-549 breast)?
**A.** > 100 µM

**Q.** And the TGI (CAKI-1 renal)?
**A.** > 100 µM

**Q.** And the TGI (CCRF-CEM leukemia)?
**A.** > 100 µM

**Q.** And the TGI (COLO 205 colon)?
**A.** > 100 µM

**Q.** What about the TGI (DU-145 prostate) of the same compound?
**A.** > 100 µM

**Q.** What about the TGI (EKVX NSCLC) of the same compound?
**A.** > 100 µM

**Q.** What about the TGI (HCC-2998 colon) of the same compound?
**A.** > 100 µM

**Q.** What about the TGI (HCT-116 colon) of the same compound?
**A.** > 100 µM

**Q.** And the TGI (HCT-15 colon)?
**A.** > 100 µM

**Q.** And the TGI (HL-60(TB) leukemia)?
**A.** > 100 µM

**Q.** What about the TGI (HOP-62 NSCLC) of the same compound?
**A.** > 100 µM

**Q.** What about the TGI (HOP-92 NSCLC) of the same compound?
**A.** > 100 µM

**Q.** What about the TGI (HT29 colon) of the same compound?
**A.** > 100 µM

**Q.** What about the TGI (IGROV1 ovarian) of the same compound?
**A.** > 100 µM

**Q.** What about the TGI (K-562 leukemia) of the same compound?
**A.** > 100 µM

**Q.** And the TGI (KM12 colon)?
**A.** > 100 µM

**Q.** And the TGI (LOX IMVI melanoma)?
**A.** > 100 µM

**Q.** What about the TGI (M14 melanoma) of the same compound?
**A.** > 100 µM

**Q.** What about the TGI (MALME-3M melanoma) of the same compound?
**A.** > 100 µM

**Q.** What about the TGI (MCF7 breast) of the same compound?
**A.** > 100 µM

**Q.** And the TGI (MDA-MB-231 breast)?
**A.** > 100 µM

**Q.** And the TGI (MOLT-4 leukemia)?
**A.** > 100 µM

**Q.** And the TGI (NCI-H226 lung)?
**A.** > 100 µM

**Q.** What about the TGI (NCI-H23 lung) of the same compound?
**A.** > 100 µM

**Q.** What about the TGI (NCI-H460 lung) of the same compound?
**A.** > 100 µM

**Q.** And the TGI (NCI-H522 lung)?
**A.** > 100 µM

**Q.** What about the TGI (NCI/ADR-RES ovarian) of the same compound?
**A.** > 100 µM

**Q.** What about the TGI (OVCAR-5 ovarian) of the same compound?
**A.** > 100 µM

**Q.** And the TGI (OVCAR-8 ovarian)?
**A.** > 100 µM

**Q.** And the TGI (PC-3 prostate)?
**A.** > 100 µM

**Q.** And the TGI (RPMI-8226 leukemia)?
**A.** > 100 µM

**Q.** And the TGI (SF-268 CNS)?
**A.** > 100 µM

**Q.** And the TGI (SF-295 CNS)?
**A.** > 100 µM

**Q.** What about the TGI (SF-539 CNS) of the same compound?
**A.** > 100 µM

**Q.** What about the TGI (SK-MEL-2 melanoma) of the same compound?
**A.** > 100 µM

**Q.** What about the TGI (SK-MEL-28 melanoma) of the same compound?
**A.** > 100 µM

**Q.** And the TGI (SK-MEL-5 melanoma)?
**A.** > 100 µM

**Q.** And the TGI (SN12C renal)?
**A.** > 100 µM

**Q.** And the TGI (SNB-19 CNS)?
**A.** > 100 µM

**Q.** What about the TGI (SR leukemia) of the same compound?
**A.** > 100 µM

**Q.** And the TGI (SW-620 colon)?
**A.** > 100 µM

**Q.** What about the TGI (TK-10 renal) of the same compound?
**A.** > 100 µM

**Q.** And the TGI (U251 CNS)?
**A.** > 100 µM

**Q.** And the TGI (UACC-257 melanoma)?
**A.** > 100 µM
